Measured values published in patent US20210024879A1, “BIOSYNTHETIC ACTIVITY OF THE ANAPLASMA PHAGOCYTOPHILUM AND EHRLICHIA CHAFFEENSIS PHAGOSOME IN A HOST CELL-FREE MEDIUM” (Kansas State University Research Foundation, priority 2018, published 2021).

Columns and labels:
[1] = system: A. phagocytophilum cell-free phagosome; experiment: Protein biosynthesis by protein fractionation, silver stained SDS polyacrylamide gel; format: cell-based, Anaplasma phagocytophilum; settings: FIGS. 15A and 15B, CHL-containing lanes
Method: Sodium dodecyl sulfate polyacrylamide gel electrophoresis: Five μL of NuPAGE LDS sample buffer and 2 μL of NuPAGE reducing agent (Invitrogen/ThermoFisher Scientific) were added to each of 10 μL of sample solution following cell-free incubation experiments in the axenic medium, boiled for 5 minutes, and then loaded onto a Mini-PROTEAN Precast Bis-Tris 4% to 14% gels (Bio-rad, Hercules, Calif.) and subjected to electrophoresis (100 mA/gel for 60 minutes). The gels were then stained with Silver staining kit (Pierce/ThermoFisher Scientific) according to the manufacturer's recommendations.
Western blot analysis to assess protein synthesis: For detection of the DnaK and P28 proteins of E. chaffeensis or the Dnak of A. phagocytophilum, the above described electrophoresed proteins were transferred onto a nitrocellulose membrane (Thermo Fisher Scientific, Waltham, Mass.) by subjecting to electro-blotting using an electrophoretic transfer unit (Bio-Rad). Protein transfer buffer was prepared as per the manufacturer's instructions and used in the protein transfer protocols. Subsequently, E. chaffeensis DnaK and P28 expressions were assessed using the polyclonal rabbit antisera raised against a recombinant E. chaffeensis proteins for DnaK and P28, respectively. […]

[2] = system: A. phagocytophilum cell-free phagosomes; experiment: 35S Cys-Met incorporation into cell-free phagosomes; format: cell-based, Anaplasma phagocytophilum; settings: energy source or CHL in axenic medium
Method: (§1) Protein synthesis by ^35S-cysteine-methionine incorporation: Protein synthesis in cell-free purified phagosomes of A. phagocytophilum or E. chaffeensis was measured by incorporation of […] (Perkin Elmer, Waltham, Mass.) as described previously. For normalization of bacterial total protein content, the suspension of the cell-free phagosomes were lysed in 1% (wt/vol) SDS for 5 minutes at 100° C. and the total protein concentration was determined using Protein Assay kit (Bio-Rad, Hercules, Calif.). Subsequently, the suspensions of cell-free phagosomes were equally split into micro-centrifuge tubes at the amount of 30 μg total protein. Partially opened micro-centrifuge tubes containing 500 μL of medium supplemented with 70 μCi of ^35S-Cys-Met were incubated 24 hours at 37° C. in a tri-gas incubator set to maintain 2.5% O2. The cell-free organisms were pelleted at the end of incubation by centrifugation at 15,000×g for 15 minutes at 4° C., washed with K-36 buffer (0.05M K2HPO4, 0.05M KH2PO4, 0.1M KCl, 0.15M NaCl, pH7.0) twice, and disrupted by adding 30 μL of 2×SDS-PAGE sample buffer and by boiling for 5 minutes. Ten μL of lysate each was then transferred to a tube containing 5 mL of biosafe liquid II and used for quantification of ^35S-Cys-Met incorporation using the protocol 4 (^35S) in a liquid scintillation counter (TRI-CARB 2100TR, PerkinElmer, Waltham, Mass.). For visualizing the of radiolabel incorporation into phagosomes proteins, equal volumes of sample lysates were also separated in an SDS/PAGE and the gel was dried and exposed to an X-ray film. Similarly, cell-free growth experiments were carried out in the absence of added ^35S-Cys-Met, resolved on an SDS-PAGE gel and stained using silver nitrate staining kit (Pierce/ThermoFisher Scientific) as per the manufacturer's recommendations.

[3] = system: E. chaffeensis cell-free phagosomes; experiment: as above; format: cell-based, Ehrlichia chaffeensis; settings: energy source or CHL in axenic medium
Method: as §1

[4] = system: E. chaffeensis cell-free organisms (DC and RC fractions); experiment: Protein synthesis by 35S-cysteine-methionine incorporation in cell-free E. chaffeensis in axenic medium; format: cell-based, Ehrlichia chaffeensis; settings: for protein synthesis (35S Cys-Met incorporation) when inhibitor included in the media: axenic media with G6P, 24 h, renografin-purified organisms, FIG. 1; for protein biosynthesis with different energy sources: RC form recovered from DH82 cultures, axenic medium supplemented with the carbon source, FIGS. 5A and 5B
Method: Protein synthesis by ^35S-cysteine-methionine incorporation: Protein synthesis in cell-free purified fractions of E. chaffeensis was measured by incorporation of ^35S-Cys-Met (Perkin Elmer, Waltham, Mass.) as described by Omsland, A., et al., in Developmental stage-specific metabolic and transcriptional activity of Chlamydia trachomatis in an axenic medium. Proc Natl Acad Sci USA. […] For normalization of bacterial total protein content, the suspension of E. chaffeensis cell-free fractions were lysed in 1% (wt/vol) SDS for 5 minutes at 100° C. and the total protein concentration was determined using Protein Assay kit (Bio-Rad, Hercules, Calif.). Subsequently, the suspensions of E. chaffeensis cell-free fractions were equally split into micro-centrifuge tubes at the amount of 30 μg total protein. Partially opened micro-centrifuge tubes containing 500 μL of medium supplemented with 70 μCi of ^35S-Cys-Met were incubated at 37° C. for 24 hours in a tri-gas incubator set to maintain 2.5% O2. E. chaffeensis cell-free organisms were pelleted at the end of incubation by centrifugation at 15,000×g for 15 minutes at 4° C., washed with K-36 buffer (0.05M K2HPO4, 0.05M KH2PO4, 0.1M KCl, 0.15M NaCl, pH7.0) twice, and disrupted by adding 30 μL of 2×SDS-PAGE sample buffer and by boiling for 5 minutes. Ten μL of lysate each was then transferred to a tube containing 5 mL of biosafe liquid II and used for quantification of ^35S-Cys-Met incorporation using the protocol 4 (^35S) in a liquid scintillation counter (TRI-CARB 2100TR, PerkinElmer, Waltham, Mass.). For visualizing the radiolabel incorporation into bacterial proteins, equal volumes of sample lysates were also separated in an SDS/PAGE and the gel was dried and exposed to an X-ray film. Similarly, cell-free growth experiments were carried out in the absence of ^35S-Cys-Met, resolved on an SDS-PAGE gel, and stained using silver nitrate staining kit (Pierce/ThermoFisher Scientific) as per the manufacturer's recommendations.

SMILES	incorporation of 35S Cys-Met ([2]; FIG. 12A photograph)	incorporation of 35S Cys-Met ([2]; FIG. 12C graph)	incorporation of 35S Cys-Met ([3]; FIG. 12B photograph)	incorporation of 35S Cys-Met ([3]; FIG. 12D graph)	protein biosynthesis with different energy sources [4]	also measured
O=C(N[C@H](CO)[C@H](O)c1ccc([N+](=O)[O-])cc1)C(Cl)Cl [CHL, chloramphenicol, reference compound]	no incorporation	no incorporation	no incorporation	no incorporation	–	protein synthesis (protein abundance, silver stained gel) [1]: no synthesis; protein synthesis (35S Cys-Met incorporation) when inhibitor included in the media [4]: abolished
Nc1ncnc2c1ncn2[C@@H]1O[C@H](COP(=O)(O)OP(=O)(O)OP(=O)(O)O)[C@@H](O)[C@H]1O [ATP, adenosine triphosphate]	showed incorporation	showed incorporation	showed incorporation	showed incorporation	–	–
CO[C@H]1/C=C/O[C@@]2(C)Oc3c(C)c(O)c4c(O)c(c(/C=N/N5CCN(C)CC5)c(O)c4c3C2=O)NC(=O)/C(C)=C\C=C\[C@H](C)[C@H](O)[C@@H](C)[C@@H](O)[C@@H](C)[C@H](OC(C)=O)[C@@H]1C [rifampin, reference compound]	–	–	–	–	–	protein synthesis (35S Cys-Met incorporation) when inhibitor included in the media [4]: abolished
O[C@H](CS)[C@H](O)CS (racemic) [DTT, Dithiothreitol]	–	–	–	–	–	impact of exclusion of reducing agent on protein biosynthesis ([4]; axenic medium with G6P, absence of DTT, RC fraction): only a marginal negative effect
CC(=O)[O-].[Na+] [sodium acetate]	–	–	–	–	supported the protein biosynthesis similarly	–
O=C[C@H](O)[C@@H](O)[C@H](O)[C@H](O)COP(=O)(O)O [G6P, glucose 6-phosphate]	showed incorporation	showed incorporation	showed incorporation	showed incorporation	supported the protein biosynthesis similarly	–
O=C(O)CCC(=O)C(=O)O [alpha ketoglutarate]	–	–	–	–	supported the protein biosynthesis similarly	–
